Starred links: 1 amine or outer side, 2 acyl side, 3 side chain; linkers in the order of their positions; H or OH if unused. Positions of bridges follow the written chain, without caps; N, C: chain ends. Non-standard residues stand in square brackets, D forms with d. Residues, ends and D or L forms follow the SMILES beside them. Glutaryl = O=C(CCCC(=O)[*:2])[*:1]
Legend:
in vivo = settings: female, CD-1, mouse, 0.3 mg/kg
Procedure: (§2) Female CD-1 mice obtained from Charles River Limited were used after overnight food deprivation for in vivo PK study. Peptides were dissolved in pH adjusted Phosphate buffered saline (PBS). 100 μL of each peptide (0.3 mg/kg) was administrated into each mouse through either i.v. or s.c route. Food was provided to mice immediately after bleeding at 30 minute. Blood were extracted into heparinized tubes and centrifuged at 3,000×g for 15 min. The resulting supernatant plasma were then stored at −80° C. for activity assays. The concentrations of peptides in plasma at each time point were determined by activity assay described above and in vivo half-life of each peptide was calculated by using Winnonlin Phoenix software (Pharsight Corp, St. Louis, MO).

[1] = target: T1, human glucagon-like peptide 1 receptor (GLP-1R) (Homo sapiens, UniProt P43220); experiment: GLP-1R receptor-mediated CRE Luc reporter assay (receptor-mediated cAMP synthesis); format: cell-based; settings: HEK293-GLP-1R-CRE cells, luciferase reporter
T1 construct: expressed in transfected cells; host or cells: HEK293 (CRE-HEK293)
Procedure: HEK293 cells were infected with lent virus encoding firefly luciferase gene under the control of CRE promoter, as described in the manual (Qiagen, Netherlands) and then were selected using 1 μg/mL puromycin (Life technologies, Carlsbad) for 1 week. The survived cells were named as CRE-HEK293, expanded and then transfected with a G418 selective mammalian expression plasmid encoding human GCGR, GLP-1R, GIPR or GLP-2R. […] Single colony stable cell lines overexpressing both CRE-luciferase and GCGR, GLP-1R, GIPR, or GLP-2R were then established for in vitro activity assays. These four stable cell lines were named as HEK293-GCGR-CRE, HEK293-GLP-1R-CRE, HEK293-GIPR-CRE, and HEK293-GLP-2R-CRE. […] Cells were treated with different peptides in a dose dependent manner.

[2] = target: T2, human glucagon receptor (GCGR) (Homo sapiens, UniProt P47871); experiment: GCGR receptor-mediated CRE Luc reporter assay (receptor-mediated cAMP synthesis); format: cell-based; settings: HEK293-GCGR-CRE cells, luciferase reporter
T2 construct: expressed in transfected cells; host or cells: HEK293 (CRE-HEK293)
Procedure: (§1) CREB responsive luciferase stable HEK 293 cell line overexpressing human glucagon receptor (GCGR), glucagon-like peptide 1 receptor (GLP-1R), glucose-dependent insulinotropic polypeptide receptor (GIPR), glucagon-like peptide 2 receptor (GLP-2R) was generated as follows. HEK293 cells were infected with lent virus encoding firefly luciferase gene under the control of CRE promoter, as described in the manual (Qiagen, Netherlands) and then were selected using 1 μg/mL puromycin (Life technologies, Carlsbad) for 1 week. The survived cells were named as CRE-HEK293, expanded and then transfected with a G418 selective mammalian expression plasmid encoding human GCGR, GLP-1R, GIPR or GLP-2R. In brief, GCGR, GLP-1R, GIPR, or GLP-2R plasmid was transfected into CRE-HEK293 cells using Lipofectamine 2000 and selected with 400 μg/mL geneticin (Life technologies, Carlsbad, CA). Single colony stable cell lines overexpressing both CRE-luciferase and GCGR, GLP-1R, GIPR, or GLP-2R were then established for in vitro activity assays. […] On the next day, 10 μl of Bright-Glo reagent (Promega, Madison, WI) were added into each well and firefly luminescence was determined using an Envision multilabel plate reader (PerkinElmer, Waltham, MA). EC50 of each peptide was calculated using GraphPad Prism 6 software (GraphPad, San Diego, CA). […]

[3] = target: T3, human glucagon-like peptide 2 receptor (GLP-2R) (Homo sapiens, UniProt O95838); experiment: GLP-2R receptor-mediated CRE Luc reporter assay (receptor-mediated cAMP synthesis); format: cell-based; settings: HEK293-GLP-2R-CRE cells, luciferase reporter
T3 construct: expressed in transfected cells; host or cells: HEK293 (CRE-HEK293)
T3 sequence (O95838 1-553): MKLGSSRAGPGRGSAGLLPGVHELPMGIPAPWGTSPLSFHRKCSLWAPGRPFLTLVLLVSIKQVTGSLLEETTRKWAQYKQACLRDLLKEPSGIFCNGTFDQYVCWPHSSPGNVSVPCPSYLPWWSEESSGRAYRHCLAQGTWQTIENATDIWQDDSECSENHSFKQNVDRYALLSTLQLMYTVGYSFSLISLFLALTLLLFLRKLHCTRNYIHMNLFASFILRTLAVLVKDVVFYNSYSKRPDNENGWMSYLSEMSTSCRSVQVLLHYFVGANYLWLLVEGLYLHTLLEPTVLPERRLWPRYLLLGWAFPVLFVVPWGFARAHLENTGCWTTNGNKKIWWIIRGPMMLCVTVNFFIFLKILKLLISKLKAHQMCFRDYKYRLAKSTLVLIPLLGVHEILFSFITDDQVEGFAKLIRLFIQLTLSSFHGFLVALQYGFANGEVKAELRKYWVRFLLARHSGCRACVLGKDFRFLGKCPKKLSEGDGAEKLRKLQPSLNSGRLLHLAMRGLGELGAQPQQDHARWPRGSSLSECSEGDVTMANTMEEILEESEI
Procedure: as §1

[4] = In vivo pharmacokinetic (PK) study in CD-1 mice; settings: female, CD-1, mouse, plasma, 0.3 mg/kg
Procedure: as §2

T2 sequence (P47871 26-477): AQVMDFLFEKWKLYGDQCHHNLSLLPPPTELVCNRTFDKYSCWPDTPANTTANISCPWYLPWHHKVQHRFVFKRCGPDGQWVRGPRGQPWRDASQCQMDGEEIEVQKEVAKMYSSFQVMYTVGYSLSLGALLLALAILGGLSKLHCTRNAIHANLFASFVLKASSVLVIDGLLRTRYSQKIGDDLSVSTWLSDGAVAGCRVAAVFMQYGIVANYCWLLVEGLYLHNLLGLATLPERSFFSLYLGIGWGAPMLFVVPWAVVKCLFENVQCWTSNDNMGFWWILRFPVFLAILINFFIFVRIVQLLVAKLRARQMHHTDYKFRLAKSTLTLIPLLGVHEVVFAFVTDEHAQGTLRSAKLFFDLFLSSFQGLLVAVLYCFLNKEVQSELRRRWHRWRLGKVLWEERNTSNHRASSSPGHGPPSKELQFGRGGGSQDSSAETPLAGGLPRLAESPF
T1 sequence (P43220 24-463): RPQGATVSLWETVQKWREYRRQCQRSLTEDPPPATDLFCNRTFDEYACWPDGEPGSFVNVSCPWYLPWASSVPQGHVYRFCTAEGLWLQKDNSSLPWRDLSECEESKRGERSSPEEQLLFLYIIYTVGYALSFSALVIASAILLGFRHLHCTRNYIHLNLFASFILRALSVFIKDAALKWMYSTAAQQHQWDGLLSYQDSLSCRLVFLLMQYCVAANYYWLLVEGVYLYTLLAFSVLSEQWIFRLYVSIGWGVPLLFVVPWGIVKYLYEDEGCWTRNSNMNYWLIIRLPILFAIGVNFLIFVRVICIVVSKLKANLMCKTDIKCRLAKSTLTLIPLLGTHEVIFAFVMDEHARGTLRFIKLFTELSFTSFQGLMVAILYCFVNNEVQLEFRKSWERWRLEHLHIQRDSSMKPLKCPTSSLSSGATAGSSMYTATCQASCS

| SMILES | half-life (in vivo; iv) | half-life (in vivo; sc) | EC50 [1] | EC50 [2] | EC50 [3] | half-life ([4]; iv) | half-life ([4]; sc) |
| --- | --- | --- | --- | --- | --- | --- | --- |
| CC[C@H](C)[C@@H]1NC(=O)[C@H](Cc2ccccc2)NC(=O)[C@H](CCC(=O)O)NC(=O)[C@H](CCCCN)NC(=O)[C@H](C)NC(=O)[C@H](C)NC(=O)[C@@H](NC(=O)[C@H](CCC(=O)O)NC(=O)[C@H](CC(=O)O)NC(=O)[C@H](CC(C)C)NC(=O)[C@H](Cc2ccc(O)cc2)NC(=O)[C@H](CCCCN)NC(=O)[C@H](CO)NC(=O)[C@H](Cc2ccc(O)cc2)NC(=O)[C@H](CC(=O)O)NC(=O)[C@H](CO)NC(=O)[C@@H](NC(=O)[C@H](Cc2ccccc2)NC(=O)[C@@H](NC(=O)CNC(=O)[C@H](CCC(N)=O)NC(=O)[C@@H](CO)NC(=O)[C@@H](N)Cc2c[nH]cn2)[C@@H](C)O)[C@@H](C)O)CCCCNC(=O)CN(C(=O)CCNC(=O)CCOCCOCCOCCNC(=O)CCCCCCCCCCCCCCCCC(=O)O)CC(=O)NCCCC[C@@H](C(=O)N[C@@H](Cc2c[nH]c3ccccc23)C(=O)N[C@@H](CC(C)C)C(=O)N[C@@H](CC(C)C)C(=O)N[C@@H](CCCNC(=N)N)C(=O)N[C@@H](C)C(N)=O)NC1=O [mTA4] | 5.7 h | 8 h | 0.03 nM | 0.15 nM |  |  |  |
| CC[C@H](C)[C@@H]1NC(=O)[C@H](Cc2ccccc2)NC(=O)[C@H](CCC(=O)O)NC(=O)[C@H](CCCCN)NC(=O)[C@H](C)NC(=O)[C@H](C)NC(=O)[C@@H](NC(=O)[C@H](CCC(=O)O)NC(=O)[C@H](CC(=O)O)NC(=O)[C@H](CC(C)C)NC(=O)[C@H](Cc2ccc(O)cc2)NC(=O)[C@H](CCCCN)NC(=O)[C@H](CO)NC(=O)[C@H](Cc2ccc(O)cc2)NC(=O)[C@H](CC(=O)O)NC(=O)[C@H](CO)NC(=O)[C@@H](NC(=O)[C@H](Cc2ccccc2)NC(=O)[C@@H](NC(=O)CNC(=O)[C@H](CCC(N)=O)NC(=O)[C@@H](CO)NC(=O)[C@@H](N)Cc2c[nH]cn2)[C@@H](C)O)[C@@H](C)O)CCCCNC(=O)CCCC(=O)NCCCC[C@@H](C(=O)N[C@@H](Cc2c[nH]c3ccccc23)C(=O)N[C@@H](CC(C)C)C(=O)N[C@@H](CC(C)C)C(=O)N[C@@H](CC(N)=O)C(=O)NCC(=O)NCC(=O)N2CCC[C@H]2C(=O)N[C@@H](CO)C(=O)N[C@@H](CO)C(=O)NCC(=O)N[C@@H](C)C(=O)N2CCC[C@H]2C(=O)N2CCC[C@H]2C(=O)N2CCC[C@H]2C(=O)N[C@@H](CO)C(N)=O)NC1=O [mTA5] (H-H[dS]QGTFTSDYSKYLDEKAAKEFIKWLLNGGPSSGAPPPS-NH2; linker 17-24 via Glutaryl) |  |  | 0.02 nM | 0.07 nM |  |  |  |
| CCCCCCCCCCCCCC(=O)NCCOCCOCCOCCC(=O)NCCC(=O)N1CC(=O)NCCCC[C@@H](C(=O)N[C@@H](C)C(=O)N[C@@H](CCCNC(=N)N)C(=O)N[C@@H](CC(=O)O)C(=O)N[C@@H](Cc2ccccc2)C(=O)N[C@H](C(=O)N[C@@H](CC(N)=O)C(=O)N[C@@H](Cc2c[nH]c3ccccc23)C(=O)N[C@@H](CC(C)C)C(=O)N[C@H](C(=O)N[C@@H](CCC(N)=O)C(=O)N[C@H](C(=O)N[C@@H](CCCCN)C(=O)N[C@H](C(=O)N[C@H](C(=O)N[C@@H](CC(=O)O)C(N)=O)[C@@H](C)O)[C@@H](C)CC)[C@@H](C)O)[C@@H](C)CC)[C@@H](C)CC)NC(=O)[C@H](CC(C)C)NC(=O)[C@H](CC(N)=O)NC(=O)[C@H](CC(=O)O)NC(=O)[C@H](CC(C)C)NC(=O)[C@H]([C@@H](C)CC)NC(=O)[C@H]([C@@H](C)O)NC(=O)[C@@H](NC(=O)[C@H](CCSC)NC(=O)[C@H](CCC(=O)O)NC(=O)[C@H](CC(=O)O)NC(=O)[C@H](CO)NC(=O)[C@H](Cc2ccccc2)NC(=O)[C@H](CO)NC(=O)CNC(=O)[C@H](CC(=O)O)NC(=O)CNC(=O)[C@@H](N)Cc2c[nH]cn2)CCCCNC(=O)C1 [mTA7] |  |  |  |  | 0.068 nM | 3 h | 4 h |

Reference: patent US20250235508A1, “MODIFIED THERAPEUTIC AGENTS AND COMPOSITIONS THEREOF” (THE SCRIPPS RESEARCH INSTITUTE, priority 2015, published 2025)
